Reference: patent US10919935B2, “Antimicrobial peptide derived from myxinidin peptide and uses thereof” (INDUSTRY-ACADEMIC COOPERATION FOUNDATION, CHOSUN UNIVERSITY, priority 2015, dated 2021)
Residues, ends and D or L forms follow the SMILES beside them.

Columns and labels:
[1] = system: Staphylococcus aureus ATCC 25923; format: cell-based
Method: (§1) To compare the antimicrobial activity of the peptide produced by the method of Example 1, the inventors of the present invention measured the growth minimum inhibitory concentration (MIC), which is minimum concentration of the peptide showing no dissociation of bacterial cells.
(§2) Specifically, the bacterial strain described in the following Table 2 was purchased and cultured in each medium to a mid-log phase. Then, after dilution to bacterial cell concentration of 2×10^5 cells/100 μl, the cells were inoculated to a microtiter plate (NUNC, USA). Thereafter, myxinidin 1, myxinidin 2, or myxinidin 3 peptides which have been synthesized in Example 1 above was diluted, 1/2 times for each, with BSA (bovine serum albumin) solution in a 96-well plate. After adding the cells to a plate, the cells were cultured for 12 hours at 37° C. By using a microtiter plate reader (Merck Elisa reader, Germany), the absorbance was measured at a wavelength of 600 nm to determine the MIC value of each bacterial strain. As a control group, myxinidin as a mother peptide was subjected to the same processes as above and the MIC value of each bacterial strain was obtained.

[2] = system: Pseudomonas aeruginosa Isolated strain 5018; format: cell-based
Method: as §1, §2

[3] = system: Pseudomonas aeruginosa ATCC 27853; format: cell-based
Method: as §1, §2

[4] = system: Staphylococcus aureus CCARM 3114; format: cell-based
Method: as §1, §2

[5] = system: Salmonella typhimurium CCARM 8009; format: cell-based
Method: as §1, §2

[6] = system: Escherichia coli ATCC 25922; format: cell-based
Method: as §1, §2

[7] = system: Staphylococcus aureus CCARM 3709; format: cell-based
Method: as §1, §2

[8] = system: Escherichia coli CCARM 1238; format: cell-based
Method: as §1, §2

[9] = system: Pseudomonas aeruginosa Isolated strain 3592; format: cell-based
Method: as §1, §2

[10] = system: Escherichia coli CCARM 1229; format: cell-based
Method: as §1, §2

[11] = system: Salmonella typhimurium KCTC 1926; format: cell-based
Method: as §1, §2

[12] = system: Listeria monocytogenes KCTC 3710; format: cell-based
Method: as §1, §2

[13] = system: Salmonella typhimurium CCARM 8013; format: cell-based
Method: as §1, §2

S. aureus [14] = experiment: Anti-biofilm activity (crystal violet); format: cell-based, Staphylococcus aureus
Method: (§3) To compare the antimicrobial activity of the peptide produced by the method of Example 1, the inventors of the present invention measured the biofilm inhibitory concentration value of the peptide showing no dissociation of bacterial cells.
(§4) Specifically, the Gram-negative bacteria and Gram-positive bacteria among the bacterial strains described in the above Table 2 were cultured in each medium to a mid-log phase. Then, after dilution to bacterial cell concentration of 5×10^5 cells/100 μl, the cells were inoculated to a microtiter plate (NUNC, USA). Thereafter, myxinidin 1, myxinidin 2, or myxinidin 3 peptides which have been synthesized in Example 1 above was diluted, 1/10 times for each, with physiological saline (PBS) solution in a 96-well plate. After adding the cells to a plate, the cells were cultured for 12 hours at 37° C. After removing the supernatant, the cells were fixed with 100% methanol and reacted for 2 hours with Crystal violet staining solution followed by rinsing for 3 times. Then, after dissolving in 95% ethanol, the absorbance was measured at a wavelength of 595 nm by using a microtiter plate reader (Merck Elisa reader, Germany) to determine the biofilm inhibitory concentration value of each bacterial strain. As a control group, myxinidin as a mother peptide was subjected to the same processes as above and the biofilm inhibitory concentration value of each bacterial strain was obtained.

S. aureus [15] = experiment: MIC at salt concentration (Example 3); format: cell-based, Staphylococcus aureus
Method: (§5) To compare the antimicrobial activity of the peptide produced by the method of Example 1, the inventors of the present invention measured the minimum growth inhibitory concentration (MIC), which is minimum concentration of the peptide showing no dissociation of bacterial cells, at salt concentration.
as §2, with “above” for “following”, “was” for “was purchased and”, “BSA+150 mM sodium chloride (NaCl) solution, physiological saline (PBS) solution, or 10 mM sodium phosphate (SP)” for “BSA (bovine serum albumin)”

S. aureus 3114 = experiment: MIC at salt concentration (Example 3); format: cell-based, Staphylococcus aureus
Method: as §5
as §2, with “above” for “following”, “was” for “was purchased and”, “BSA+150 mM sodium chloride (NaCl) solution, physiological saline (PBS) solution, or 10 mM sodium phosphate (SP)” for “BSA (bovine serum albumin)”

P. aeruginosa 5018 = experiment: MIC at salt concentration (Example 3); format: cell-based, Pseudomonas aeruginosa
Method: as §5
as §2, with “above” for “following”, “was” for “was purchased and”, “BSA+150 mM sodium chloride (NaCl) solution, physiological saline (PBS) solution, or 10 mM sodium phosphate (SP)” for “BSA (bovine serum albumin)”

P. aeruginosa [16] = experiment: MIC at salt concentration (Example 3); format: cell-based, Pseudomonas aeruginosa
Method: as §5
as §2, with “above” for “following”, “was” for “was purchased and”, “BSA+150 mM sodium chloride (NaCl) solution, physiological saline (PBS) solution, or 10 mM sodium phosphate (SP)” for “BSA (bovine serum albumin)”

P. aeruginosa 3592 = experiment: MIC at salt concentration (Example 3); format: cell-based, Pseudomonas aeruginosa
Method: as §5
as §2, with “above” for “following”, “was” for “was purchased and”, “BSA+150 mM sodium chloride (NaCl) solution, physiological saline (PBS) solution, or 10 mM sodium phosphate (SP)” for “BSA (bovine serum albumin)”

P. aeruginosa [17] = experiment: Anti-biofilm activity (crystal violet); format: cell-based, Pseudomonas aeruginosa
Method: as §3, §4

[18] = NaCl (BSA+150 mM sodium chloride)

Antimicrobial activity (MIC) according to salt concentration (S. aureus [15]; [18]): >32
Antimicrobial activity (MIC) according to salt concentration (S. aureus [15]; PBS): >32
Antimicrobial activity (MIC) according to salt concentration (S. aureus [15]; SP (10 mM sodium phosphate)): >32
Antimicrobial activity (MIC) according to salt concentration (S. aureus 3114; [18]): >32
Antimicrobial activity (MIC) according to salt concentration (S. aureus 3114; PBS): >32
Antimicrobial activity (MIC) according to salt concentration (S. aureus 3114; SP (10 mM sodium phosphate)): >32
Antimicrobial activity (MIC) according to salt concentration (P. aeruginosa 5018; [18]): >32
Antimicrobial activity (MIC) according to salt concentration (P. aeruginosa 5018; PBS): >32
Antimicrobial activity (MIC) according to salt concentration (P. aeruginosa 5018; SP (10 mM sodium phosphate)): >32
Antimicrobial activity (MIC) according to salt concentration (P. aeruginosa [16]; [18]): >32
Antimicrobial activity (MIC) according to salt concentration (P. aeruginosa [16]; PBS): >32
Antimicrobial activity (MIC) according to salt concentration (P. aeruginosa [16]; SP (10 mM sodium phosphate)): >32
Antimicrobial activity (MIC) according to salt concentration (P. aeruginosa 3592; [18]): >32
Antimicrobial activity (MIC) according to salt concentration (P. aeruginosa 3592; PBS): >32
Antimicrobial activity (MIC) according to salt concentration (P. aeruginosa 3592; SP (10 mM sodium phosphate)): >32
Structure (SMILES): CC[C@H](C)[C@H](NC(=O)CN)C(=O)N[C@@H](Cc1c[nH]cn1)C(=O)N[C@@H](Cc1c[nH]cn1)C(=O)N[C@H](C(=O)N[C@@H](CC(C)C)C(=O)N[C@@H](CCCCN)C(=O)N[C@@H](Cc1ccc(O)cc1)C(=O)NCC(=O)N[C@@H](CCCCN)C(=O)N1CCC[C@H]1C(=O)N[C@@H](CO)C(N)=O)[C@@H](C)CC [Myxinidin 1, GIHHILKYGKPS-NH2] (H-GIHHILKYGKPS-NH2; N-terminus assumed)
Minimum growth inhibitory concentration [1]: >32 µM
Minimum growth inhibitory concentration [2]: >32 µM
Minimum growth inhibitory concentration [3]: >32 µM
Minimum growth inhibitory concentration [4]: >32 µM
Minimum growth inhibitory concentration [5]: >32 µM
Minimum growth inhibitory concentration [6]: >32 µM
Minimum growth inhibitory concentration [7]: >32 µM
Minimum growth inhibitory concentration [8]: >32 µM
Minimum growth inhibitory concentration [9]: >32 µM
Minimum growth inhibitory concentration [10]: >32 µM
Minimum growth inhibitory concentration [11]: >32 µM
Minimum growth inhibitory concentration [12]: >32 µM
Minimum growth inhibitory concentration [13]: >32 µM
Biofilm forming ability (S. aureus [14]; peptide 0.25 μM): 98%
Biofilm forming ability (S. aureus [14]; peptide 0.5 μM): 88%
Biofilm forming ability (S. aureus [14]; peptide 1 μM): 87%
Biofilm forming ability (S. aureus [14]; peptide 2 μM): 86%
Biofilm forming ability (S. aureus [14]; peptide 4 μM): 83%
Biofilm forming ability (S. aureus [14]; peptide 8 μM): 83%
Biofilm forming ability (S. aureus [14]; peptide 16 μM): 79%
Biofilm forming ability (S. aureus [14]; peptide 32 μM): 75%
Biofilm forming ability (P. aeruginosa [17]; peptide 0.25 μM): 100%
Biofilm forming ability (P. aeruginosa [17]; peptide 0.5 μM): 100%
Biofilm forming ability (P. aeruginosa [17]; peptide 1 μM): 94%
Biofilm forming ability (P. aeruginosa [17]; peptide 2 μM): 93%
Biofilm forming ability (P. aeruginosa [17]; peptide 4 μM): 92%
Biofilm forming ability (P. aeruginosa [17]; peptide 8 μM): 92%
Biofilm forming ability (P. aeruginosa [17]; peptide 16 μM): 89%
Biofilm forming ability (P. aeruginosa [17]; peptide 32 μM): 88%
